This note sets out measurements from publication PMC11172478, “1,3,5-Triazine as Branching Connector for the Construction of Novel Antimicrobial Peptide Dendrimers: Synthesis and Biological Characterization” (International Journal of Molecular Sciences, 2024).

Values after ≈ are worked out from the molar mass of the structure shown. Read-outs that look alike come from different tables or passages of the source. Positions of bridges follow the written chain, without caps; N, C: chain ends. Non-standard residues stand in square brackets, D forms with d. Residues, ends and D or L forms follow the SMILES beside them. *: point of attachment. X2 = CC[C@H](C)CCCCC(=O)*; βNA = c1ccc2cc(N*)ccc2c1; Dab = NCC[C@H](N)C(=O)O A value given as a limit tells only on which side of the number the result lay.

Test [1] has as its system E. coli 208691. Briefly: Intracellular accumulation of acridine orange. Type of test: cell-based. As to conditions: AO 0.25 µg/mL, 30 min. The protocol: (§1) The assay was performed as previously described by Armengol et al. including control and clinical strains (E. coli 208691 and P. aeruginosa 666 SJD) previously studied by our group. Briefly, 96-well flat-bottomed microtiter plates (Guangzhou Jet Bio-Filtration Co., Ltd., Mianyang, China) were used. Overnight cultures were diluted in 1/4 Ringer’s solution to an OD520nm of 1.5, and 100 µL was added to the wells previously filled with 100 µL of Ringer’s solution. Acridine Orange (AO) was added to a final concentration of 0.25 µg/mL. The inoculated plates were then incubated for 30 min with shaking, after which the fluorescence was measured in a FLUOstar OPTIMA fluorescence microplate reader (BMG Labtech, Ortenberg, Germany).
(§2) To determine the uptake and accumulation of AO by bacteria, different scenarios were compared. First, bacteria were examined in the presence of PAβN at 20 µg/mL, and then in the presence of different concentrations of the dendrimers at (MIC, ½ MIC, ¼ MIC). The results in each condition were expressed as the percentage increase in fluorescence with respect to the control.

Test [2] relates to P. aeruginosa 666 SJD. Briefly: Intracellular accumulation of acridine orange. As to conditions: PaβN 20 µg/mL, AO 0.25 µg/mL, 30 min, fluorescence. Type of test: cell-based. The protocol: as §1, §2
For test [3], the system named is P. aeruginosa ATCC 27853. Briefly: Intracellular accumulation of acridine orange. Type of test: cell-based. As to the method: as §1, §2
Test [4] concerns E. coli 13974. Briefly: microbe, parasite or virus in culture. It counts as cell-based. As to conditions: Escherichia coli; MDR isolate E. coli 13974; read-out: MIC. As to the method:
(§3) E. coli ATCC 25922, P. aeruginosa ATCC 27853, S. aureus ATCC 29213, P. aeruginosa 666 SJD (ciprofloxacin-resistant), P. aeruginosa P12, P13, P15, P16 and P17 (MDR isolates) and E. coli 7987, 5545, 8248, 13974, 7259 and 208691 (MDR isolates) from our own collection were included in the present study.
(§4) The antimicrobial activity of the dendrimers was evaluated against E. coli ATCC 25922, P. aeruginosa ATCC 27853 and S. aureus ATCC 29213 strains. The MIC values were determined by the broth microdilution method. Briefly, the different strains were grown in Muller Hinton broth cation adjusted (MHBCA) medium overnight at 37 °C with shaking at 200 rpm. The bacterial cultures were then adjusted to OD625nm of 0.08–0.1, and 5 μL of each diluted suspension was added to 96-well plates previously filled with MHBCA and serially diluted peptides. Plates were incubated for 24 h at 37 °C. Finally, the MIC was determined macroscopically, based on the visual turbidity of the wells.

Test [5] concerns E. coli 208691. Briefly: microbe, parasite or virus in culture. Type of test: cell-based. The protocol: as §3, §4
Test [6] concerns E. coli 5545. Briefly: microbe, parasite or virus in culture. It counts as cell-based. As to conditions: Escherichia coli; MDR isolate E. coli 5545; read-out: MIC. The protocol: as §3, §4
The test system of test [7] is E. coli 7259. Briefly: microbe, parasite or virus in culture. To be noted: Escherichia coli; MDR isolate E. coli 7259; read-out: MIC. It counts as cell-based. As to the method: as §3, §4
The test system of test [8] is E. coli 7987. Briefly: microbe, parasite or virus in culture. It counts as cell-based. To be noted: Escherichia coli; MDR isolate E. coli 7987; read-out: MIC. The protocol:
as §3, §4

The test system of test [9] is E. coli 8248. Briefly: microbe, parasite or virus in culture. As to conditions: Escherichia coli; MDR isolate E. coli 8248; read-out: MIC. Type of test: cell-based. As to the method:
as §3, §4

Test [10] has as its system P. aeruginosa P12. Briefly: microbe, parasite or virus in culture. Type of test: cell-based. As to conditions: MDR isolate P. aeruginosa P12. As to the method: as §3, §4
Test [11] relates to P. aeruginosa P13. Briefly: microbe, parasite or virus in culture. It counts as cell-based. As to the method: as §3, §4
In test [12] the test system is P. aeruginosa P15. Briefly: microbe, parasite or virus in culture. It counts as cell-based. As to the method: as §3, §4
For test [13], the system named is P. aeruginosa P16. Briefly: microbe, parasite or virus in culture. It counts as cell-based. To be noted: MDR isolate P. aeruginosa P16. The protocol:
as §3, §4

Test [14] concerns P. aeruginosa P17. Briefly: microbe, parasite or virus in culture. It counts as cell-based. As to the method: as §3, §4
Test [15] relates to E. coli ATCC 25922. It counts as cell-based. As to conditions: broth microdilution, MHBCA, 24 h, 37 °C, visual turbidity. As to the method:
as §4
(Dilution methods test growth across graded concentrations, often in twofold steps.)

Test [16] has as its system P. aeruginosa ATCC 27853. It counts as cell-based. As to conditions: broth microdilution, MHBCA, 24 h, 37 °C, visual turbidity. As to the method:
as §4

In test [17] the test system is S. aureus ATCC 29213. It counts as cell-based. As to conditions: broth microdilution, MHBCA, 24 h, 37 °C, visual turbidity. As to the method: as §4
In test [18] the test system is E. coli ATCC 25922. It counts as cell-based. As to the method:
(§5) The real-time effect of the peptide dendrimers was examined on the growth curves of E. coli ATCC 25922 and P. aeruginosa ATCC 27853. Volumes of 10 mL of TSB liquid cultures containing 1–5 × 10^5 CFU/mL in the logarithmic phase were adjusted in Falcon tubes. Peptide dendrimers were then added at MIC and sub-inhibitory concentrations (½ MIC and ¼ MIC). Incubation was performed in RTS-1C real-time reverse spin bioreactors RTS-1 (Biosan) for 24 h at 37 °C and 2000 rpm. Growth was measured noninvasively as optical density (OD 850 nm) every 15 min.

Test [19] concerns P. aeruginosa ATCC 27853. Briefly: Bacterial growth curves. It counts as cell-based. To be noted: P. aeruginosa ATCC 27853, TSB, MIC, ½ MIC and ¼ MIC, 24 h, 37 °C, OD 850 nm. The protocol: as §5
In test [20] the test system is P. aeruginosa ATCC 27853. Briefly: Time-kill curves. It counts as cell-based. As to conditions: P. aeruginosa ATCC 27853, ½ MIC. The protocol:
The death kinetics of the active dendrimers were examined by plotting their time-kill curves against E. coli ATCC 25922 and P. aeruginosa ATCC 27853. The dendrimers were added to a starting bacterial inoculum of 10^6 CFU/mL in 5 mL of MHBCA medium. Dendrimers were tested at three different concentrations: MIC, ½ MIC and ¼ MIC. They were incubated for 24 h at 37 °C with shaking at 200 rpm. Samples were aseptically collected at 0, 1, 2, 4 and 6 h, serially diluted in Ringer ¼ and plated on Tryptone soy agar for colony counting.
The response of the microbial strains to the dendrimers was determined based on a logarithmic decrease in viable bacteria. A compound was considered active if it caused a reduction of ≥1 log10 CFU/mL, compared to the corresponding counts at time 0 h. In addition, a dendrimer was considered bactericidal if it caused a reduction of ≥3 log10 CFU/mL [40].

For test [21], the system named is E. coli ATCC 25922. Briefly: Atomic force microscopy of treated bacteria. Type of test: cell-based. As to conditions: E. coli ATCC 25922, dendrimer at MIC, 4 h, 37 °C. The protocol: E. coli ATCC 25922 was grown at 37 °C in Mueller Hinton cation-adjusted broth to an optical density of 0.25 at 625 nm. Dendrimers were added to a starting inoculum of 10^6 CFU/mL and incubated for 4 h at 37 °C with shaking. Untreated E. coli was included as a control. Cells in 1 mL of culture were centrifuged at 5000 rpm for 5 min and washed three times with 1 mL of sterile water. The bacterial cells were then resuspended in 100 µL of sterile water and a 10 µL drop was applied to a freshly cleaved mica surface and allowed to dry for approximately 10 min at room temperature.
The disk surfaces were analyzed by atomic force microscopy using an AFM XE-70 (Park Systems, Suwon, Korea) in non-contact mode with an ACTA 10M cantilever. […] The AFM images were processed using a scanning probe image processor XEI (Park Systems), correcting the plane of the AFM image for any coupling of the lateral plane and the z-axis caused by the instrument.

Test [22] can be described thus: Black lipid bilayers conductance. As to conditions: DiPhPC/PS 4:1 in n-decane, 1 M KCl, −80, −120 and −180 mV. The protocol: The basic methods have been described previously. Membranes were prepared from 1% lipid a mixture of di-phytanoyl-phosphatidylcholine/di-phytanoylphosphatidylserine (DiPhPC/PS) in a molar ratio of 4:1 in n-decane (Avanti Polar Lipids, Delfzyl, The Netherlands). Bilayers were painted over a 2 mm^2 hole in a Teflon divider separating two compartments containing 5 mL each of a bathing solution of 1MKCl. Voltages were applied across the membrane via calomel electrodes connected by a salt bridge. The resultant current was amplified 10^8-fold by a current amplifier and recorded on a Rikadenski chart recorder. A concentration of 1 μg/mL of the dendrimer was used based on the results of Wu et al..

The mark [23] stands for this setting: Pseudomonas aeruginosa, read-out: MIC.

Consider `NC(N)=NCCC[C@H](NC(=O)[C@@H](N)Cc1ccccc1)C(=O)Nc1ccc2ccccc2c1` [PaβN, reference compound] (H-Phe-Arg-βNA), for which the “AO accumulation (untreated control = 100%)” value in test [1] (E. coli 208691, PaβN 20 µg/mL, fluorescence) was not below 140%; in test [2] it was not below 140%. The “changes in AO accumulation by susceptible strains (in words)” value in test [3] (susceptible strains, PaβN 20 µg/mL) is reported as “almost negligible”.
Regarding `O=C(O)c1cn(C2CC2)c2cc(N3CCNCC3)c(F)cc2c1=O` [Ciprofloxacin, reference compound], the MIC in test [4] is 32 µg/mL (≈ 96.6 µM); in test [5] (Escherichia coli, 208691) it was 256 µg/mL (≈ 773 µM); in test [6], 64 µg/mL (≈ 193 µM); in [7], 32 µg/mL (≈ 96.6 µM); in test [8], 32 µg/mL (≈ 96.6 µM); in test [9], 32 µg/mL (≈ 96.6 µM). In addition, the MIC in [10] (setting [23]) amounted to 64 µg/mL (≈ 193 µM); in test [11] (Pseudomonas aeruginosa, P13) it was 128 µg/mL (≈ 386 µM); in [12] (Pseudomonas aeruginosa, P15), 256 µg/mL (≈ 773 µM); in test [13] (setting [23]), 64 µg/mL (≈ 193 µM); in test [14] (Pseudomonas aeruginosa, P17), 256 µg/mL (≈ 773 µM).
As for “H-[(LK)3-EDA]4-(TA-EDA)2-TA-(LK)3-NH2 [Dendrimer 3]”, the “MIC E. coli ATCC 25922” value in test [15] stood at 8 µg/mL. In addition, the “MIC P. aeruginosa ATCC 27853” value in test [16] was 32 µg/mL. In test [17], the “MIC S. aureus ATCC 29213” value is more than 64 µg/mL. Further, the “effect on growth curve (in words)” value in test [18] (E. coli ATCC 25922, TSB, MIC, ½ MIC and ¼ MIC, 24 h, 37 °C, OD 850 nm) is “inhibited the growth at the MIC and ½ MIC”; in test [19], “complete growth inhibition occurred at the MIC”. Besides, the “delay in the onset of detectable turbidity” value in test [18] (E. coli ATCC 25922, at concentrations lower than ½ MIC) is reported as 10 h. Besides, the “prolongation of lag phase” value in test [18] (E. coli ATCC 25922, at ¼ MIC) stood at 6 h. Moreover, the “concentration that completely inhibited detectable growth” value in test [18] (E. coli ATCC 25922, growth curves, 24 h) is recorded as 4 µg/mL. Besides, in test [20], the “time-kill activity at ½ MIC (in words)” value is listed as “higher antimicrobial activity than dendrimer 1”. Moreover, in test [21], the “bacterial surface alteration by AFM (in words)” value is “significant surface damages”. For the same compound, in test [22], the “channel formation in planar lipid bilayers (conductance)” value is given as “did not induce membrane channels”. Also, the “AO accumulation (in words)” value was “increase in the AO accumulation with clear differences between the MIC, ½ MIC and ¼ MIC” in test [1] (E. coli 208691, dendrimers at MIC, ½ MIC, ¼ MIC); “slight increase in AO accumulation” in test [3] (P. aeruginosa ATCC 27853, dendrimers at MIC).
Regarding `CC[C@H](C)CCCCC(=O)N[C@@H](CCN)C(=O)N[C@H](C(=O)N[C@@H](CCN)C(=O)N[C@H]1CCNC(=O)[C@H]([C@@H](C)O)NC(=O)[C@H](CCN)NC(=O)[C@H](CCN)NC(=O)[C@H](CC(C)C)NC(=O)[C@@H](CC(C)C)NC(=O)[C@H](CCN)NC1=O)[C@@H](C)O` [Colistin, reference compound] (X2-[Dab]T[Dab][Dab][Dab][dL]L[Dab][Dab]T; lactam 4-C (inferred); N-terminus assumed), the MIC in test [5] (MDR isolate E. coli 208691) was 0.5 µg/mL (≈ 0.428 µM); in test [10] it was 64 µg/mL (≈ 54.7 µM); in [11] (MDR isolate P. aeruginosa P13), 32 µg/mL (≈ 27.4 µM); in [12] (MDR isolate P. aeruginosa P15), more than 128 µg/mL; in test [13], 16 µg/mL (≈ 13.7 µM); in [14] (MDR isolate P. aeruginosa P17), more than 8 µg/mL.
